Laboratory results as given in PubChem BioAssay AID1996.
Converted amounts (≈) assume the structure as drawn.

Settings: buffer; pH 7.4; 200.0 µM

Compound | solubility kinetic [µg/mL]
Cc1cc(C)c(NC(=O)C(C)N2CCCCCC2)c(C)c1.Cl (stereo not given) | 36.6
O=S(=O)(c1ccc2c(c1)CCN2)N1CCOCC1 | > 40.2
O=C(O)c1nn2cc(CCO)cnc2c1Cl | > 36.2
COc1cccc(C(C)NC(=O)C2CCCO2)c1 (stereo not given) | 36.1 (≈ 145 µM)
CN1C(=O)c2cccc3c(S(=O)(=O)N4CCCC4C(=O)O)ccc1c23 (stereo not given) | > 54.1
Cc1ccc(C)c2c1N(Cc1ccccc1)C(=O)C21OCCO1 | < 0.7
COc1ccc2[nH]c(C)c(-c3csc(N)n3)c2c1 | 31.3 (≈ 121 µM)
CC(NC(=O)CCc1ccccc1)c1ccc2c(c1)OCO2 (stereo not given) | 42 (≈ 141 µM)
Cc1ccc(S(=O)(=O)N2CCOCC2)cc1NC(=O)COC(=O)Cc1ccccc1 | > 64.9
COc1ccc2[nH]cc(C(=O)C(=O)N3CCCCC3)c2c1 | > 42.9
CC(C)CC(=O)NC(C)C(c1cccs1)N1CCOCC1 (stereo not given) | 45.4 (≈ 146 µM)
O=C(Cc1ccccc1Cl)N1CCOCC1 | > 36
COc1ccc(NC(=O)c2ccccc2)c([N+](=O)[O-])c1 | 2.1 (≈ 7.71 µM)
O=C(NCC1CCCO1)C1CCCN1C(=O)Nc1ccc(Cl)cc1 (stereo not given) | > 52.8
O=C(NCc1cccnc1)NC1CC(=O)N(c2ccc3c(c2)OCCO3)C1 (stereo not given) | > 55.3
Cc1cc(C(=O)OCC(=O)NC2CCCCC2C)c2ccccc2n1 (stereo not given) | 6.3 (≈ 18.5 µM)
CCCC(=O)Nc1sc(C)c(C)c1C#N | 13.6 (≈ 61.2 µM)
Cc1ccc(C(=O)NCCNS(=O)(=O)c2ccccc2[N+](=O)[O-])cc1 | > 54.5
CN(C)CCOC1c2ccccc2CCc2ccc3ccccc3c21.O=C(O)C(=O)O (stereo not given) | > 63.2
Cc1cc(=O)[nH]c(SCc2ccccc2)n1 | > 34.8
CC1CCN(C(=O)CN2C(=O)NC(C)(c3ccc4ccccc4c3)C2=O)CC1 (stereo not given) | 5.9 (≈ 15.5 µM)
CN(C(=O)c1ccc(Br)o1)C1CCS(=O)(=O)C1 (stereo not given) | > 48.3
CCN(CC)C(=O)CSc1nnc(SC(C)C(=O)NC2CC2)s1 (stereo not given) | > 56.2
COc1ccc(/C=C/C(=O)N2CCOCC2)cc1OC | > 41.6

Compound | solubility kinetic [µg/mL]
COc1ccc(C(C#N)=C2C=CC(=NO)C=C2)cc1 | 4.2 (≈ 16.6 µM)
CCOc1ccccc1C(=O)NCC(=O)OCC(=O)N1CCCC1 | > 50.2
Cc1cc(C)cc(N=C2NC(=O)CS2)c1 | > 33
CN(C)CCn1c(COc2ccccc2)nc2ccccc21.Cl.O | > 60.7
O=C(Cn1cc(C(F)(F)F)ccc1=O)N1CCCc2ccccc21 | > 50.4
COc1cc(N=c2ssnc2Cl)c(OC)cc1Cl | 15.6 (≈ 48.3 µM)
O=C(NC(=O)N1CCCCCC1)c1ccccc1 | > 36.9
O=c1c2ccccc2ncn1CCCCOc1ccccc1F | 37.3 (≈ 119 µM)
O=C(O)CC(NCc1ccco1)C(=O)OCCCl (stereo not given) | > 41.4
Cc1cccc(NC(=O)CSc2cccc3cccnc23)c1 | 21.3 (≈ 69.1 µM)
Cc1ccc(CSCC(=O)NCc2ccc(F)cc2)cc1 | 23.2 (≈ 76.5 µM)
Cc1cc(NC(=O)CCc2ccc(-c3ccccc3)o2)no1 | 2.4 (≈ 8.1 µM)
COc1ccc2cc(S(=O)(=O)NCc3cccnc3)ccc2c1 | 13.8 (≈ 42 µM)
C[Se]C[C@@H](N)C(=O)O.Cl | > 32.8
CCC(=O)c1c(NC)cc(C)oc1=O | > 29.3
Cc1c(C)n(C)c2ccc(C(=O)NCCc3ccco3)cc12 | > 44.5
COC(=O)c1cc(CSc2nc3ccccc3c(=O)n2C)oc1C | 4.4 (≈ 12.8 µM)
CCNC(=S)Nc1ccc(Cc2nc3ccccc3[nH]2)cc1 | 36 (≈ 116 µM)
COc1ccc(OC)c(NC(=O)CCNC(=O)c2ccco2)c1 | 44.7 (≈ 140 µM)
Cc1cc(C)cc(NC(=O)C(C)N2C(=O)c3ccccc3C2=O)c1 (stereo not given) | 14.4 (≈ 44.7 µM)
N#Cc1c(NCCCO)nc(NCc2ccccc2)c2c1CCN(Cc1ccccc1)C2 | 7.7 (≈ 18 µM)
Cc1cccc(NC(=O)C(Cc2ccccc2)n2cccc2)c1 (stereo not given) | 11.6 (≈ 38.1 µM)
Cc1ccc(/C=C/C(=O)O)cc1S(=O)(=O)N1CCCc2ccccc21 | > 53.6
Cc1ccc(C(=O)Nc2cccnc2)cc1Cl | 35.6 (≈ 144 µM)

Compound | solubility kinetic [µg/mL]
CCOC(=O)c1c(N)c2cc([N+](=O)[O-])cnc2n1C | 1.9 (≈ 7.19 µM)
COc1ccc(S(=O)(=O)NCCc2ccccc2)c2cccnc12 | > 51.4
CC1(C)CC(NC2C3CC4CC(C3)CC2C4)CC(C)(C)N1.Cl (stereo not given) | > 54.5
COc1cccc(CNc2nc3ccccc3n2C)c1O | 6.2 (≈ 21.9 µM)
CC(C)(C)NC(=O)C(OC(=O)c1cccs1)c1ccccc1 (stereo not given) | 3.3 (≈ 10.4 µM)
COc1ccc(S(=O)(=O)Nc2cccc(F)c2)cc1C | > 44.3
CCCCNC(=S)N1CCN(c2nc3ccccc3s2)CC1 | 0.9 (≈ 2.69 µM)
C=CCOc1cccc(/C=C/c2nc3ccccc3c(=O)[nH]2)c1 | > 45.7
CCOC(=O)c1ccccc1NC(=O)c1cc2ccccc2o1 | < 0.7
Cc1cc(C(=O)O)c(C)n1Cc1ccncc1 | 32.2 (≈ 140 µM)
O=C(O)CSCC(=O)N1CCN(Cc2ccc3c(c2)OCO3)CC1 | > 52.9
COc1cc(CNc2ccc3[nH]c(=O)[nH]c3c2)ccc1OCC(=O)NC(C)(C)C | 52.3 (≈ 131 µM)
CCN1CC(CN(C)Cc2nc(-c3ccco3)oc2C)CC1=O (stereo not given) | > 47.6
Cc1nn(CC(=O)NC(C)C)c(C)c1[N+](=O)[O-] | > 36
C=CCN(CC=C)C(=O)C[n+]1ccc(C(N)=O)cc1.[Cl-] | > 44.4
O=C(O)C(Cc1ccc(O)cc1)N1C(=O)c2ccccc2C1=O (stereo not given) | > 46.7
O=C(COC(=O)C1CC2C=CC1C2)Nc1ccccc1[N+](=O)[O-] (stereo not given) | 29.4 (≈ 92.9 µM)
Cc1ccc(O)c(NC(=O)c2ccccc2-c2ccccc2C(=O)O)c1 | > 52.1
Cc1onc(-c2c(F)cccc2Cl)c1C(=O)N=C(N)N1CC(C)OC(C)C1 (stereo not given) | 0.8 (≈ 2.03 µM)
Clc1ccc2c(NCc3ccccc3)ccnc2c1 | 19 (≈ 70.7 µM)
CC[C@@H](Nc1ncnc2c1oc1ccccc12)C(=O)O | 29.9 (≈ 110 µM)
Cc1ccc2oc(C(=O)N(Cc3ccccc3)C3CCS(=O)(=O)C3)c(C)c2c1 (stereo not given) | 1.6 (≈ 4.03 µM)
Cc1nc(=S)c2c([nH]1)-c1ccccc1CC21CCCCC1 | 0.3 (≈ 1.01 µM)
Cc1ccc(CNC(=O)c2cncc(Br)c2)cc1 | 9.6 (≈ 31.5 µM)

Compound | solubility kinetic [µg/mL]
COc1ccccc1CN(C)C(=O)CSCC(=O)Nc1ccccc1F | > 56.5
CN(CCC1CCOCC1)Cc1nc(Cc2ccccc2F)no1 | > 50
O=C(NC1CCS(=O)(=O)C1)c1cccc(Br)c1 (stereo not given) | > 47.7
O=C(/C=C/c1ccccc1)Nc1cc(NC(=O)/C=C/c2ccccc2)cc(C(=O)O)c1 | 52.7 (≈ 128 µM)
O=C(CCl)NCc1cc(-c2ccc(Cl)cc2)no1 | 13.2 (≈ 46.3 µM)
O=C(OCC(=O)N1CCOCC1)c1cc(-c2ccccc2)nc2ccccc12 | 53.4 (≈ 142 µM)
c1csc(-c2cn3ccc4ccccc4c3n2)c1 | 10.7 (≈ 42.7 µM)
CC(NC(=O)COC(=O)C12CC3CC(CC(Br)(C3)C1)C2)c1ccccc1 (stereo not given) | 20.6 (≈ 49 µM)
COc1ccc(C(=O)CSc2nnc3ccccn23)cc1OC | > 49.4
O=C(COC(=O)c1ccc2ccccc2c1O)Nc1ccccc1 | 2.3 (≈ 7.16 µM)
CC(=O)Nc1ccc(OCCC[n+]2ccccc2)cc1.[Cl-] | > 46
O=C(Nc1ccc(S(=O)(=O)Nc2nccs2)cc1)C(F)(F)F | > 52.7
CCOc1ccc(-c2nc(N)ncc2-c2ccccc2OC)c(O)c1 | 1.3 (≈ 3.85 µM)
COc1cc(CN2CCSCC2)c([N+](=O)[O-])cc1OC | 35.2 (≈ 118 µM)
CN(C(=O)c1ccccc1-c1ccccc1C(=O)O)c1ccccc1 | 44.5 (≈ 134 µM)
COC(=O)c1cn(C(=O)c2cc(OC)cc(OC)c2)c2ccccc12 | 3.4 (≈ 10 µM)
O=C(CN1C(=O)CCS(=O)(=O)c2ccccc21)NCCc1ccccc1 | 55.3 (≈ 148 µM)
Cc1cccc(OCC(=O)Nc2ccncc2)c1C | 37.8 (≈ 147 µM)
O=C(c1ccc(Br)cc1)N(c1ccccn1)C1CCCCC1 | 16.5 (≈ 45.9 µM)
O=C(NCc1cccnc1)Nc1ccc(Cl)cc1 | > 39.3
CCN(CC(=O)NC1CC1)S(=O)(=O)c1ccccc1 | > 42.4
Br.CN(C)C1=NCC(CSC(=N)N)S1 (stereo not given) | 32.5
O=C(Nc1cccc([N+](=O)[O-])c1)C1CC(=O)N(C2CCCCC2)C1 (stereo not given) | 48.5 (≈ 146 µM)
Cc1nc(Nc2ccccc2)c2oc3ccc(Cl)cc3c2n1 | < 0.2

Compound | solubility kinetic [µg/mL]
CCOc1cc(C2NC(=O)c3ccccc3O2)ccc1OC (stereo not given) | 8.6 (≈ 28.7 µM)
O=C(Nc1ccc(Cl)cc1)C1CCN(C(=O)c2ccco2)CC1 | > 49.9
CCCCn1c(=O)[nH]c(=O)c2c1nc(-c1ccccn1)n2CC | 18.7 (≈ 59.7 µM)
CCn1c(SCc2ccc(F)cc2)nc2c(c1=O)SCC2 | 0.9 (≈ 2.79 µM)
Cc1ccccc1NC(=S)N(Cc1ccccc1)Cc1cccs1 | 0.7 (≈ 1.99 µM)
Cc1nc(N/C(N)=N/S(=O)(=O)c2ccccc2)nc2ccccc12 | 3.6 (≈ 10.5 µM)
COc1cc(OC)c(NC(=O)C2CCCO2)cc1Cl (stereo not given) | > 42.9
Cc1ccc2c(Cl)c(C(=O)NC3CC3)sc2c1 | < 0.6
Cc1nc(CSc2ccc(Br)cc2)cs1 | 8.8 (≈ 29.3 µM)
CC(C)(C)C(=O)Nc1ccc(S(=O)(=O)NC2=NCCCCC2)cc1 | > 52.7
CCCc1cc(=O)oc2c(CN3CCN(C)CC3)c(O)ccc12 | 45.2 (≈ 143 µM)
O=C(COC(=O)/C=C/c1ccc(OC(F)F)cc1)NC(=O)NC1CCCCC1 | 4.5 (≈ 11.4 µM)
COC(=O)CSC(=S)N1C(C)CCCC1C (stereo not given) | 31.1 (≈ 119 µM)
O=S(=O)(c1ccc2[nH]c3c(c2c1)CCCC3)N1CCCCC1 | 12.3 (≈ 38.6 µM)
CCCCNC(=O)C1CCC(CNc2nc(=S)[nH]c3ccccc23)CC1 (stereo not given) | 2.6 (≈ 6.98 µM)
CCOC(=O)Nc1ccc(S(=O)(=O)Nc2onc(C)c2C)cc1 | 47.2 (≈ 139 µM)
Cc1cccc(NC(=S)NCCc2ccc3c(c2)OCCO3)c1C | 27.7 (≈ 80.9 µM)
Cc1onc(-c2ccccc2)c1-c1ccnc(N)n1 | 33.8 (≈ 134 µM)
CCOC(=O)c1c(NC(=O)c2cc(C)on2)c2cc([N+](=O)[O-])ccc2n1C | 1.6 (≈ 4.3 µM)
Cc1cc(NC(=O)c2ccccc2)no1 | 28.8 (≈ 142 µM)
N#Cc1ccc(NC(=O)COC(=O)c2cccnc2Cl)cc1 | > 47.4
CCCCCCCCNC(CO)(CO)CO | 29.5 (≈ 126 µM)
Cc1ccc(C(=O)NCC(=O)N2CCCN(C)CC2)cc1C | > 45.5
CC1(C(=O)NCCOc2ccccc2Cl)CC1(Cl)Cl (stereo not given) | > 48.4
